Assay [1] addresses Ras GEF SOS (Son of Sevenless) (Homo sapiens, UniProt Q07889). In words: SOS-mediated nucleotide exchange on Ras (BODIPY-GDP fluorescence). As to conditions: SOS-mediated exchange of BODIPY-GDP for GTP on Ras. It counts as biochemical. Summed up: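 Ras loaded with BODIPY-GDP was mixed in buffer with test compound, then GTP and SOS. Fluorescence change from labeled GDP/GTP exchange was followed over time, and rates came from single-exponential fits. EC50 came from a four-parameter fit of mean rate against compound concentration.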

Assay [2] concerns H727 lung cancer cell lines (G12V K-Ras mutation). Description: Inhibition of cancer cell proliferation (CellTiter-Glo). It counts as cell-based. Particulars: Homo sapiens, NCI-H727, 72 h; H727 cells, 3 days treatment, CellTiter-Glo; read-out: Cell proliferation activity (H727 cancer cell line proliferation IC50). Here is the method: Compounds of the present invention were measured for their ability to kill H727 lung cancer cell lines, which contain a G12V K-Ras mutation. Cell proliferation experiments were conducted in 96-well plates. Cells were plated at 1000 cells/well, incubated overnight, followed by treatment with a dose range of compound for 3 days at 37° C. Cell proliferation was assessed using a CellTiter-Glo assay (Promega) according to the manufacturer's protocol. Data were normalized to DMSO control. IC50 values were determined using a four-parameter dose-response (variable slope) equation. These assays are performed in a manner analogous to the assay disclosed in: Burns, M. C.; Sun, Q.; Daniels, R. N.; Camper, D. V.; Kennedy, J. P.; Phan, J.; Olejniczak, E. O.; Lee, T.; Waterson, A. G.; Rossanese, O. W.; Fesik, S. W. “Approach for targeting Ras with small molecules that activate SOS-mediated nucleotide exchange” Proc. Natl. Acad. Sci. 2014; 11(9): 3401-3406. PMCID: PMC3948241.
On the technique in general: In ATP-based viability assays light output follows the ATP content of the culture.

Assay [3] deals with T1, Son of Sevenless (SOS) (Homo sapiens, UniProt Q07889).
T1 sequence (Q07889 564-1049 limits assumed): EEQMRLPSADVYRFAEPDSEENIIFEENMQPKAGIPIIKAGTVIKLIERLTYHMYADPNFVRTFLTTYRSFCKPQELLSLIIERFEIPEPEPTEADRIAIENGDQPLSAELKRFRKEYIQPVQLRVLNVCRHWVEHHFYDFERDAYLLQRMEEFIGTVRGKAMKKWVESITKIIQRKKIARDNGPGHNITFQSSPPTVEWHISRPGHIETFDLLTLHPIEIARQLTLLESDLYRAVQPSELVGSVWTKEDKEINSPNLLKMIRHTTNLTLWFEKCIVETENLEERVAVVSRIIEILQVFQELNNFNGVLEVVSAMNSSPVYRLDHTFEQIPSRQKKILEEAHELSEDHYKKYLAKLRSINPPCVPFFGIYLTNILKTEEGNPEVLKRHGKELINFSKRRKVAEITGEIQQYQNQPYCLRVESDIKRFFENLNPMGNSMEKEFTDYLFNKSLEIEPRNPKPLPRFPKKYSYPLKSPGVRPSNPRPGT
Description: Binding to SOS, fluorescence polarization anisotropy (FPA) probe displacement. As to conditions: displacement of FITC-conjugated probe (Example 285), affinity calculated from IC50. Put shortly: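 A FITC-conjugated probe compound was incubated with SOS in buffer, and its displacement was tracked as a change in fluorescence anisotropy across a test-compound dose range. IC50 came from a four-parameter variable-slope fit, and binding affinity was calculated from it.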

By EC50 is commonly meant the concentration at which the effect is half-maximal. A lower EC50 goes with greater potency. One may read the Ki as a measure of affinity in units of concentration, obtained from inhibition or displacement.

Where a name gives a salt, the structure may show the parent alone. Where only a bound is given, the exact number is not on record here.

Chain of Ras GEF SOS (Son of Sevenless) (P01112 1-166 partner limits assumed, one chain of several): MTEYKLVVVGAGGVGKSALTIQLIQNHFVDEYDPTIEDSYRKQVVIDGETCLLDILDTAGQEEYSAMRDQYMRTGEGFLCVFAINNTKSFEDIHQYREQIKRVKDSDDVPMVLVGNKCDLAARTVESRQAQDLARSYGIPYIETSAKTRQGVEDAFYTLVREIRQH

Take `COc1ccc(-c2cccc3c2nc(N2CCNCC2)n3Cc2ccc(C(F)(F)F)cc2)cc1OC` [Example 91, 4-(3,4-dimethoxyphenyl)-2-(piperazin-1-yl)-1-(4-(trifluoromethyl)benzyl)-1H-benzo[d]imidazole]: in assay [1], the EC50 was 5000 to 30000 nM. For the same compound, the IC50 in assay [2] was in the range of 1000 to 5000 nM.
`Cc1cc(Cn2c(N3CC(CN)C3)nc3ccc(OCCN(C)C)nc32)ccc1F` [Example 262, 2-((2-(3-(aminomethyl)azetidin-1-yl)-3-(4-fluoro-3-methylbenzyl)-3H-imidazo[4,5-b]pyridin-5-yl)oxy)-N,N-dimethylethan-1-amine] gave an EC50 in assay [1] of 30000 to 100000 nM. The IC50 in assay [2] is 5000 to 20000 nM.
The matching figures for `Cc1cc(-c2cccc3c2nc(N2CCNCC2)n3Cc2ccc(C(F)(F)F)cc2)nn1C` [Example 96, 4-(1,5-dimethyl-1H-pyrazol-3-yl)-2-(piperazin-1-yl)-1-(4-(trifluoromethyl)benzyl)-1H-benzo[d]imidazole]: 1000 to 5000 nM and 1000 to 5000 nM.
Take `Cc1cc(-c2c(C)c(C)cc3c2nc(N2CCNCC2)n3Cc2ccc(F)c(Cl)c2)n(C)n1` [Example 286, 1-(3-chloro-4-fluorobenzyl)-4-(1,3-dimethyl-1H-pyrazol-5-yl)-5,6-dimethyl-2-(piperazin-1-yl)-1H-benzo[d]imidazole]: the IC50 in assay [2] fell in the range of 1000 to 5000 nM.
`Cc1cc(N2CCC(N)CC2)c2nc(N3CCNCC3)n(Cc3cc(C)c(F)c(C)c3)c2c1` [Example 188, 1-(1-(4-fluoro-3,5-dimethylbenzyl)-6-methyl-2-(piperazin-1-yl)-1H-benzo[d]imidazol-4-yl)piperidin-4-amine trifluoroacetate]: the EC50 in assay [1] fell in the range of 1000 to 5000 nM. In assay [3], the Ki was 500 to 1000 nM.
The matching figures for `Cc1cc2nc(NC3CCNC3)n(Cc3ccc(F)c(Cl)c3)c2cc1C` (stereo not shown) [Example 293, 1-(3-chloro-4-fluorobenzyl)-5,6-dimethyl-N-(pyrrolidin-3-yl)-1H-benzo[d]imidazol-2-amine]: 1000 to 5000 nM and 1000 to 5000 nM.
The matching figures for `CC(C)CN1CC[C@@H](C(=O)c2ccccc2)[C@@H]1c1cc(Cl)cc2c1nc(N1CCNCC1)n2Cc1ccc(F)c(Cl)c1` [Example 151, ((2R,3R)-2-(6-chloro-1-(3-chloro-4-fluorobenzyl)-2-(piperazin-1-yl)-1H-benzo[d]imidazol-4-yl)-1-isobutylpyrrolidin-3-yl)(phenyl)methanone trifluoroacetate]: 5000 to 30000 nM and more than 5000 nM.
The matching figures for `CN(CCO)Cc1cc(Cl)cc2c1nc(N1CCNCC1)n2Cc1ccc(F)c(Cl)c1` [Example 134, 2-(((6-chloro-1-(3-chloro-4-fluorobenzyl)-2-(piperazin-1-yl)-1H-benzo[d]imidazol-4-yl)methyl)(methyl)amino)ethan-1-ol trifluoroacetate]: less than 1000 nM and 500 to 1000 nM.
On to `Cc1cc2nc(N3CCNCC3)n(Cc3ccc(Cl)cc3)c2cc1C` [Example 19, 1-(4-chlorobenzyl)-5,6-dimethyl-2-(piperazin-1-yl)-1H-benzo[d]imidazole trifluoroacetate], for which the EC50 in assay [1] lay in the range of 5000 to 30000 nM. Moreover, the Ki in assay [3] was more than 5000 nM.
The like results for `Cc1cc2c(nc(N3CCNCC3)n2Cc2ccc(F)c(Cl)c2)c(-c2ccnn2-c2ccc(Br)cc2)c1C` [Example 172, 4-(1-(4-bromophenyl)-1H-pyrazol-5-yl)-1-(3-chloro-4-fluorobenzyl)-5,6-dimethyl-2-(piperazin-1-yl)-1H-benzo[d]imidazole trifluoroacetate] were, in that order, 1000 to 5000 nM and 1000 to 5000 nM.
The matching figures for `CC(C)Cn1nccc1-c1cc(Cl)cc2c1nc(N1CCNCC1)n2Cc1ccc(F)c(Cl)c1` [Example 174, 6-chloro-1-(3-chloro-4-fluorobenzyl)-4-(1-isobutyl-1H-pyrazol-5-yl)-2-(piperazin-1-yl)-1H-benzo[d]imidazole trifluoroacetate]: 1000 to 5000 nM and less than 500 nM.
The like results for `Cc1cc(Cn2c(N3CCNCC3)nc3c(-n4ccc(N)c4)cc(Cl)cc32)cc(C)c1F` [Example 279, 1-[6-chloro-1-[(4-fluoro-3,5-dimethylphenyl)methyl]-2-piperazin-1-ylbenzimidazol-4-yl]pyrrol-3-amine] were, in that order, 1000 to 5000 nM and less than 500 nM.
For `Cc1cc(Cn2c(NCC3CNC3)nc3c(-c4ccccc4Cl)cc(Cl)cc32)cc(C)c1F` [Example 305, N-(azetidin-3-ylmethyl)-6-chloro-4-(2-chlorophenyl)-1-(4-fluoro-3,5-dimethylbenzyl)-1H-benzo[d]imidazol-2-amine], in assay [1], the EC50 was less than 1000 nM. Besides, in assay [3], the Ki is less than 500 nM.
For `Cc1cc(NCCCCN(C)C)c2nc(N3CCNCC3)n(Cc3cc(C)c(F)c(C)c3)c2c1` [Example 196, N^1-(1-(4-fluoro-3,5-dimethylbenzyl)-6-methyl-2-(piperazin-1-yl)-1H-benzo[d]imidazol-4-yl)-N^4,N^4-dimethylbutane-1,4-diamine trifluoroacetate], the EC50 in assay [1] was in the range of 1000 to 5000 nM. Further, the Ki in assay [3] is 500 to 1000 nM.
Take `Cc1ccccc1C#Cc1ccccc1-c1cc(Cl)cc2c1nc(N1CCNCC1)n2Cc1cc(C)c(F)c(C)c1` [Example 185, 6-chloro-1-(4-fluoro-3,5-dimethylbenzyl)-2-(piperazin-1-yl)-4-(2-(o-tolylethynyl)phenyl)-1H-benzo[d]imidazole trifluoroacetate]: the EC50 in assay [1] lay in the range of 5000 to 30000 nM. For the same compound, the Ki in assay [3] is more than 5000 nM.
The matching figures for `Cc1cc(-c2ccc(CN)cc2)c2nc(N3CCNCC3)n(Cc3cc(C)c(F)c(C)c3)c2c1` [Example 318, (4-(1-(4-fluoro-3,5-dimethylbenzyl)-6-methyl-2-(piperazin-1-yl)-1H-benzo[d]imidazol-4-yl)phenyl)methanamine]: less than 1000 nM and less than 500 nM.
The matching figures for `Cc1cc(Cn2c(NCCN)nc3c(OCCN4CCCC4)cccc32)ccc1F` [Example 207, N^1-(1-(4-fluoro-3-methylbenzyl)-4-(2-(pyrrolidin-1-yl)ethoxy)-1H-benzo[d]imidazol-2-yl)ethane-1,2-diamine]: less than 1000 nM and 1000 to 5000 nM.
The matching figures for `Cc1cc(OCCN2CCN(C)CC2)c2nc(N3CCNCC3)n(Cc3cc(C)c(F)c(C)c3)c2c1` [Example 201, 1-(4-fluoro-3,5-dimethylbenzyl)-6-methyl-4-(2-(4-methylpiperazin-1-yl)ethoxy)-2-(piperazin-1-yl)-1H-benzo[d]imidazole]: less than 1000 nM and 500 to 1000 nM.
Take `Cc1cc(Cn2c(N3CCNCC3)nc3c(C#Cc4ccccc4)cc(Cl)cc32)cc(C)c1F` [Example 123, 6-chloro-1-(4-fluoro-3,5-dimethylbenzyl)-4-(phenylethynyl)-2-(piperazin-1-yl)-1H-benzo[d]imidazole trifluoroacetate]: in assay [1], the EC50 fell in the range of 1000 to 5000 nM. Moreover, in assay [3], the Ki is 1000 to 5000 nM.
Take `Cc1cc(Cn2c(NCCN)nc3c(N4CCN(C)CC4)cc(Cl)cc32)cc(C)c1F` [Example 300, N^1-(6-chloro-1-(4-fluoro-3,5-dimethylbenzyl)-4-(4-methylpiperazin-1-yl)-1H-benzo[d]imidazol-2-yl)ethane-1,2-diamine]: in assay [1], the EC50 is less than 1000 nM. For the same compound, in assay [3], the Ki is less than 500 nM.
In turn, `Cc1cc(Cn2c(N3CCNCC3)nc3c(C(N)C(=O)O)cc(Cl)cc32)cc(C)c1F` (stereo not shown) [Example 282, 2-amino-2-[6-chloro-1-[(4-fluoro-3,5-dimethylphenyl)methyl]-2-piperazin-1-ylbenzimidazol-4-yl]acetic acid] yielded an EC50 in assay [1] of 1000 to 5000 nM. In addition, in assay [3], the Ki is 500 to 1000 nM.
The matching figures for `Cc1cc(OC2CCNC2)c2nc(N3CCNCC3)n(Cc3cc(C)c(F)c(C)c3)c2c1` (stereo not shown) [Example 327, 1-(4-fluoro-3,5-dimethylbenzyl)-6-methyl-2-(piperazin-1-yl)-4-(pyrrolidin-3-yloxy)-1H-benzo[d]imidazole]: less than 1000 nM and 500 to 1000 nM.

The record behind these values is US10501421B1, “Substituted benzimidazoles as modulators of Ras signaling” (VANDERBILT UNIVERSITY, priority 2017, dated 2019).
